The numbers were not newly measured in US9492541B2, “Phenylepherine containing dosage form” (SOVEREIGN PHARMACEUTICALS, LLC, priority 2004, dated 2016), which cites them from elsewhere.

The conditions of this data set: oral.

`CNC[C@H](O)c1cccc(O)c1` [phenylepherine]: the “period over which a single dose provides a therapeutically effective plasma concentration” value is 2.5 ± 0.7 h.
